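These data come from cells grown in 96-well plates and exposed to compound for 48 hours at five concentrations. At the GI50, growth is halved.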 The source made the active and inactive calls. Cut-off read from the data, not from the text of the source: active = GI50 up to about 1.1 µM and inactive = higher.
Tests used:
Test in all cases: DTP human tumour cell line panel, 48 h
ACHN = system: ACHN
HCC 2998 = system: HCC 2998
HCT-116 = system: HCT-116
HCT-15 = system: HCT-15
HL-60 = system: HL-60
K562 = system: K562
NCI-H23 = system: NCI-H23
OVCAR-4 = system: OVCAR-4
OVCAR-5 = system: OVCAR-5
OVCAR-8 = system: OVCAR-8
RPMI-8226 = system: RPMI-8226
SK-MEL-2 = system: SK-MEL-2
SNB-19 = system: SNB-19
SW-620 = system: SW-620
UO-31 = system: UO-31
CAKI-1 = system: CAKI-1
M14 = system: M14
HOP-92 = system: HOP-92

Row | SMILES | GI50 (ACHN) | GI50 (HCC 2998) | GI50 (HCT-116) | GI50 (HCT-15) | GI50 (HL-60) | GI50 (K562) | GI50 (NCI-H23) | GI50 (OVCAR-4) | GI50 (OVCAR-5) | GI50 (OVCAR-8) | GI50 (RPMI-8226) | GI50 (SK-MEL-2) | GI50 (SNB-19) | GI50 (SW-620) | GI50 (UO-31) | GI50 (CAKI-1) | GI50 (M14) | GI50 (HOP-92)
1 | Cc1nc2nn(C)cc2c(=O)n1/N=C/c1ccccc1 | > 100 µM (inactive) | > 100 µM (inactive) | > 100 µM (inactive) | > 100 µM | > 100 µM (inactive) | > 100 µM (inactive) | > 100 µM (inactive) | > 100 µM (inactive) | > 100 µM (inactive) | > 100 µM (inactive) | > 100 µM (inactive) | > 100 µM (inactive) | > 100 µM (inactive) | > 100 µM (inactive) | > 100 µM (inactive) |  |  | 
2 | CCOC(=O)/C(C(=O)c1ccccc1)=C1/NCCN1C | > 100 µM (inactive) | > 100 µM (inactive) | > 100 µM (inactive) | > 100 µM | > 100 µM (inactive) | > 100 µM (inactive) | > 100 µM (inactive) | > 100 µM (inactive) | > 100 µM (inactive) | > 100 µM (inactive) | > 100 µM (inactive) | > 100 µM (inactive) | > 100 µM (inactive) | > 100 µM (inactive) | > 100 µM (inactive) | > 100 µM (inactive) | > 100 µM (inactive) | 
3 | CC1=C(c2ccccc2)C(c2ccccc2)=C(c2ccccc2)C2(c3ccccc3)C(=O)C(C)CN12 (stereo not drawn) | 41.4 µM (inactive) | > 100 µM (inactive) | 45.3 µM (inactive) | 61.2 µM |  | > 10 µM (inactive) |  | 20.8 µM (inactive) | 49.9 µM (inactive) | 17.9 µM (inactive) | 29.2 µM (inactive) | 95.7 µM (inactive) | 26.5 µM (inactive) | 79.1 µM (inactive) | > 100 µM (inactive) | 57.3 µM (inactive) | 51.6 µM (inactive) | 
4 | O=C1C[C@@H]2[C@@H](CCC23CCCC3)N1 | > 100 µM (inactive) | > 100 µM (inactive) | > 100 µM (inactive) | > 100 µM | > 100 µM (inactive) | > 100 µM (inactive) | > 100 µM (inactive) | > 100 µM (inactive) | > 100 µM (inactive) | > 100 µM (inactive) | > 100 µM (inactive) | > 100 µM (inactive) | > 100 µM (inactive) | > 100 µM (inactive) | > 100 µM (inactive) | > 100 µM (inactive) | > 100 µM (inactive) | 
5 | C[C@]12CCC3[C@@H](CC[C@@H]4c5nonc5CC[C@]34C)C1CCC2=O (stereo partly drawn) | 24.5 µM (inactive) |  | 17 µM (inactive) | 29.8 µM | 15.7 µM (inactive) | 29.4 µM (inactive) | 24.5 µM (inactive) | 23.8 µM (inactive) | 29.3 µM (inactive) | 31.7 µM (inactive) | 17 µM (inactive) | 20.3 µM (inactive) | 40.4 µM (inactive) | 37.2 µM (inactive) | 11.3 µM (inactive) | 22.9 µM (inactive) | 18.3 µM (inactive) | 20.8 µM (inactive)
6 | O=C(O)CN(c1ccc(F)cc1)S(=O)(=O)c1ccccc1 | > 100 µM (inactive) |  |  | > 100 µM | > 100 µM (inactive) | > 100 µM (inactive) | > 100 µM (inactive) | > 100 µM (inactive) | > 100 µM (inactive) | > 100 µM (inactive) | > 100 µM (inactive) | > 100 µM (inactive) | > 100 µM (inactive) | > 100 µM (inactive) | > 100 µM (inactive) | > 100 µM (inactive) | > 100 µM (inactive) | > 100 µM (inactive)
7 | CCOc1ccc2c(c1)[n+]([O-])c(-c1ccc(Br)cc1)c(N)[n+]2[O-] | 47.2 µM (inactive) | > 100 µM (inactive) |  | 47 µM | 31.3 µM (inactive) | 75.5 µM (inactive) | 22.8 µM (inactive) | > 100 µM (inactive) | > 100 µM (inactive) | 57.7 µM (inactive) | 52.4 µM (inactive) | > 100 µM (inactive) | 57.3 µM (inactive) | > 100 µM (inactive) | 67.3 µM (inactive) | 27.2 µM (inactive) | 49 µM (inactive) | 

— ChEMBL document CHEMBL1201862, “PubChem BioAssay data set” (2004)
